# How the values were obtained:
# Assay in all cases: relative viability (nuclei count vs DMSO), 5 days (fraction); higher = more cells survive
# Tosedostat + Phenformin = compound: CC(C)C[C@@H](C(=O)N[C@H](C(=O)OC1CCCC1)c1ccccc1)[C@H](O)C(=O)NO [Tosedostat] + N=C(N)NC(=N)NCCc1ccccc1 [Phenformin] (partner 250 µM)
# Procedure, shortened: (§1)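 Dosing by pin tool came one day after lung cancer cell lines were seeded in 1536-well plates, using either one drug or a fixed anchor-drug dose plus five library-drug doses (not always all listed) in √10 steps. After 5 days, nuclei were counted on 4× images. Relative viability is treated-well nuclei count divided by vehicle-well nuclei count, and values are medians of duplicate plates.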
# Tosedostat + Luminespib = compound: CC(C)C[C@@H](C(=O)N[C@H](C(=O)OC1CCCC1)c1ccccc1)[C@H](O)C(=O)NO [Tosedostat] + CCNC(=O)c1noc(-c2cc(C(C)C)c(O)cc2O)c1-c1ccc(CN2CCOCC2)cc1 [Luminespib] (partner 0.01 µM)
# Procedure, shortened: as §1
# Tosedostat + Decitabine = compound: CC(C)C[C@@H](C(=O)N[C@H](C(=O)OC1CCCC1)c1ccccc1)[C@H](O)C(=O)NO [Tosedostat] + Nc1ncn([C@H]2C[C@H](O)[C@@H](CO)O2)c(=O)n1 [Decitabine] (partner 2 µM)
# Procedure, shortened: as §1
# [1] = compound: CC1=NN=C(O1)C2=NN=C(C=C2)N3CCC(CC3)OC4=C(C=CC(=C4)F)Cl + C[C@]1(O)C[C@@H](c2nc(-c3ccc4ccc(-c5ccccc5)nc4c3)c3c(N)nccn32)C1 [Linsitinib] (partner 1 µM)
# Procedure, shortened: as §1
Cell Line,relative viability (Tosedostat + Phenformin; first compound 0.02 µM),relative viability (Tosedostat + Phenformin; first compound 0.06325 µM),relative viability (Tosedostat + Phenformin; first compound 0.2 µM),relative viability (Tosedostat + Phenformin; first compound 0.6325 µM),relative viability (Tosedostat + Phenformin; first compound 2 µM),relative viability (Tosedostat + Luminespib; first compound 0.02 µM),relative viability (Tosedostat + Luminespib; first compound 0.06325 µM),relative viability (Tosedostat + Luminespib; first compound 0.2 µM),relative viability (Tosedostat + Luminespib; first compound 0.6325 µM),relative viability (Tosedostat + Luminespib; first compound 2 µM),relative viability (Tosedostat + Decitabine; first compound 0.02 µM),relative viability (Tosedostat + Decitabine; first compound 0.06325 µM),relative viability (Tosedostat + Decitabine; first compound 0.2 µM),relative viability (Tosedostat + Decitabine; first compound 0.6325 µM),relative viability (Tosedostat + Decitabine; first compound 2 µM),relative viability ([1]; first compound 0.253 µM),relative viability ([1]; first compound 0.8 µM),relative viability ([1]; first compound 2.53 µM),relative viability ([1]; first compound 8 µM)
NCI-H2342,0.513,0.733,0.558,0.494,0.442,0.686,0.732,0.806,0.859,0.883,0.713,0.688,0.718,0.692,0.689,–,–,–,–
SK-MES-1,0.696,0.686,0.663,0.568,0.54,0.813,0.813,0.898,0.789,0.74,0.356,0.372,0.325,0.273,0.346,0.848,0.8,0.828,0.815
NCI-H1355,0.43,0.445,0.457,0.38,0.377,0.699,0.782,0.779,0.688,0.648,0.347,0.357,0.315,0.332,0.305,–,–,0.806,0.66
HCC-366,0.573,0.623,0.638,0.532,0.6,–,–,–,–,–,0.332,0.369,0.397,0.311,0.359,0.225,0.291,0.386,0.247
201T,0.425,0.445,0.461,0.428,0.445,0.969,1.2,1.14,1.24,1.18,0.835,0.894,0.879,0.891,0.846,0.569,0.596,0.634,0.565
HCC-827,0.401,0.443,0.397,0.355,0.301,0.587,0.73,0.651,0.362,0.695,0.317,0.331,0.289,0.26,0.314,0.395,0.281,0.366,0.355
PC-14,0.653,0.54,0.452,0.448,0.38,0.163,0.197,0.16,0.207,0.127,0.218,0.177,0.146,0.0843,0.0753,0.783,0.732,0.777,0.739
NCI-H2228,0.334,0.266,0.291,0.244,0.175,0.149,0.132,0.198,0.188,0.12,–,–,–,–,–,0.673,0.808,0.481,0.547
NCI-H727,0.705,0.485,–,0.442,0.397,0.305,0.513,–,0.427,0.254,0.88,0.9,0.868,0.794,0.754,0.189,0.251,0.327,0.251
NCI-H1650,0.484,0.501,0.399,0.399,0.281,0.185,0.179,0.205,0.19,0.174,0.43,0.413,0.433,0.318,0.237,–,–,–,–
A-427,0.322,0.393,0.376,0.301,0.323,0.882,0.739,1.01,0.919,1.08,0.562,0.594,0.629,0.506,0.55,0.947,–,0.907,0.887
NCI-H650,0.497,0.478,0.435,0.442,0.405,0.952,0.773,0.834,0.714,0.755,0.291,0.339,0.316,0.319,0.262,0.981,0.766,0.773,0.786
NCI-H1792,0.243,0.472,0.445,0.404,0.31,0.427,0.356,0.433,0.802,0.935,0.62,0.506,0.52,0.465,0.525,0.324,0.409,0.36,0.401
NCI-H2009,0.562,0.477,0.477,0.468,0.419,1.12,1,1.05,0.97,1.04,0.379,0.377,0.404,0.433,0.329,0.684,0.636,0.623,0.589
Calu-6,–,–,–,–,–,–,–,–,–,–,–,–,–,–,–,0.635,0.612,0.691,0.656
NCI-H1975,0.4,0.401,0.412,0.342,0.375,0.208,0.195,0.382,0.325,0.19,0.396,0.425,0.4,0.274,0.407,–,0.941,0.815,0.868
LOU-NH91,0.823,0.742,0.691,0.677,0.481,0.377,0.454,0.313,0.306,0.322,0.82,0.797,0.806,0.726,0.74,–,0.86,0.862,0.997
EMC-BAC-2,0.495,0.508,0.552,0.473,0.442,1.26,1.06,1.17,1.15,0.986,1.04,0.964,0.971,0.877,0.865,0.742,0.755,0.77,0.637
LK-2,0.38,0.529,0.455,0.259,0.347,0.175,0.21,0.167,0.221,0.214,0.305,0.306,0.237,0.262,0.272,0.603,0.592,0.627,0.49
NCI-H2405,0.398,0.407,0.397,0.368,0.359,0.8,0.809,0.838,0.786,0.79,0.772,0.733,0.712,0.603,0.657,0.859,0.784,0.851,0.731
NCI-H520,0.391,0.593,0.585,0.712,0.782,0.172,0.252,0.209,0.291,0.225,0.524,0.439,0.414,0.459,0.495,0.929,0.793,0.93,0.755

Cell Line,relative viability (Tosedostat + Phenformin; first compound 0.02 µM),relative viability (Tosedostat + Phenformin; first compound 0.06325 µM),relative viability (Tosedostat + Phenformin; first compound 0.2 µM),relative viability (Tosedostat + Phenformin; first compound 0.6325 µM),relative viability (Tosedostat + Phenformin; first compound 2 µM),relative viability (Tosedostat + Luminespib; first compound 0.02 µM),relative viability (Tosedostat + Luminespib; first compound 0.06325 µM),relative viability (Tosedostat + Luminespib; first compound 0.2 µM),relative viability (Tosedostat + Luminespib; first compound 0.6325 µM),relative viability (Tosedostat + Luminespib; first compound 2 µM),relative viability (Tosedostat + Decitabine; first compound 0.02 µM),relative viability (Tosedostat + Decitabine; first compound 0.06325 µM),relative viability (Tosedostat + Decitabine; first compound 0.2 µM),relative viability (Tosedostat + Decitabine; first compound 0.6325 µM),relative viability (Tosedostat + Decitabine; first compound 2 µM),relative viability ([1]; first compound 0.253 µM),relative viability ([1]; first compound 0.8 µM),relative viability ([1]; first compound 2.53 µM),relative viability ([1]; first compound 8 µM)
NCI-H2085,0.55,0.646,0.713,0.673,0.682,0.377,0.969,0.491,0.407,0.4,–,0.548,0.495,0.503,0.43,0.743,0.793,0.792,0.65
NCI-H1944,0.21,0.194,0.217,0.196,0.211,0.855,0.599,0.758,0.724,0.748,0.456,0.431,0.458,0.416,0.39,0.626,0.769,0.728,0.717
LXF-289,0.495,0.493,0.479,0.495,0.399,0.703,0.599,0.687,0.732,0.64,0.409,0.392,0.365,0.387,0.328,0.724,0.712,0.688,0.603
NCI-H596,0.734,0.762,0.761,0.72,0.599,1.07,1.26,1.04,0.893,0.938,1.3,1.13,1.03,0.879,0.838,–,0.953,1.01,0.933
NCI-H441,0.861,0.833,0.569,0.61,0.713,0.347,0.351,0.348,0.332,0.306,0.226,0.253,0.239,0.198,0.244,0.571,0.419,0.473,0.396
NCI-H2126,0.492,0.535,0.477,0.489,0.462,0.848,0.905,0.91,0.878,0.654,0.533,0.583,0.591,0.478,0.462,0.67,0.64,0.753,0.505
HCC-15,0.512,0.46,0.432,0.348,0.32,0.408,0.269,0.78,0.211,0.308,0.675,0.649,0.591,0.446,0.433,0.608,0.58,0.553,0.578
HCC-78,0.644,0.68,0.637,0.671,0.752,–,–,–,–,–,0.634,0.706,0.732,0.75,0.658,0.455,0.417,0.459,0.403
NCI-H1299,–,–,–,–,–,–,–,–,–,–,–,–,–,–,–,0.896,0.802,0.807,0.856
NCI-H1703,–,–,–,–,–,–,–,–,–,–,–,–,–,–,–,0.714,0.686,0.803,0.737
NCI-H1563,0.653,0.703,0.662,0.722,0.65,0.575,0.52,0.5,0.648,0.492,–,–,–,–,–,1.18,1.1,1.35,1.21
ChaGo-K-1,0.435,0.522,0.487,0.412,0.359,0.648,0.598,0.836,0.572,0.491,0.487,0.526,0.543,0.463,0.419,–,–,–,–
NCI-H1648,–,–,–,–,–,–,–,–,–,–,0.389,0.426,0.51,0.421,0.399,–,–,–,–
A549,0.154,0.217,0.233,0.101,0.116,–,–,–,–,–,0.264,0.337,0.24,0.193,0.292,0.543,0.565,0.427,0.351
NCI-H522,1.31,0.592,0.659,0.624,0.58,1.29,1.27,1.23,1.41,1.27,0.594,0.619,0.639,0.578,0.72,–,–,–,–
NCI-H2170,0.409,0.424,0.381,0.396,0.408,0.819,0.637,0.612,0.592,0.662,0.454,0.499,0.491,0.421,0.453,–,–,–,–
NCI-H1623,0.558,0.609,0.622,0.519,0.618,0.51,0.622,0.607,0.538,0.607,–,–,–,–,–,–,–,–,–
SW 900,0.496,0.606,0.478,0.367,0.417,0.175,0.182,0.19,0.17,0.155,0.463,0.499,0.405,0.359,0.415,–,–,–,–
IA-LM,–,–,–,–,–,–,–,–,–,–,–,–,–,–,–,0.0892,0.0763,0.1,0.0794
CAL-12T,0.639,0.552,0.508,0.446,0.371,0.364,0.304,0.834,0.713,0.353,–,–,–,–,–,0.953,0.78,0.754,0.869
EBC-1,–,–,–,–,–,–,–,–,–,–,–,–,–,–,–,0.549,0.558,0.623,0.57

# From the supplement of paper PMC10307832
